Values after ≈ are worked out from the molar mass of the structure shown. Like-named read-outs stand apart in the source and are kept apart here. Values belong to the compound of their own block, whether it stands above or below them.
Columns and labels:
Format in all cases: physicochemical
[1] = Solubility of doripenem crystal in water
Procedure: The solubility of the Type VI doripenem anhydride crystal of Example 3 according to the present invention was measured and compared with that of the Type IV doripenem of Comparative Example 9.
50 mg of each of the Type VI doripenem anhydride crystal of Example 3 and the Type IV doripenem of Comparative Example 9 was added with water until the doripenem was completely dissolved, and the solubility thereof was measured. Meanwhile, 10 mL of water was added with the Type VI doripenem anhydride crystal of Example 3 and the Type IV doripenem of Comparative Example 9 until the doripenem was completely dissolved, and the solubility thereof was measured.

[2] = Stability: purity after standing at 60° C. for 3 weeks
Procedure: In addition, the Type VI doripenem anhydride crystal according to the present invention and the Type IV doripenem were allowed to stand at 60° C. for 3 weeks, and the purity thereof was measured to evaluate the stability.

[3] = Stability: max. amount of impurities after standing at 60±5° C. for 3 weeks
Procedure: In addition, the Type VII doripenem anhydride crystal of Example 7 according to the present invention and the Type IV doripenem of Comparative Example 9 were allowed to stand at 60±5° C. for 3 weeks, and the purity thereof was measured to evaluate the stability.

[4] = TGA loss
Procedure: Based on the results of TGA, about 4.8% loss occurred in the Type IV doripenem of Comparative Example 9 (FIG. 8) and about 0.46% loss occurred in the Type VI doripenem anhydride crystal of Example 3 according to the present invention (FIG. 7). This means that the novel doripenem crystal, prepared through the method of the present invention, is an anhydride. Furthermore, the water content of the doripenem anhydride crystal according to the present invention was measured and found to be less than about 2%.

[5] = DSC, decomposition temperature / stability at high temperature
Procedure: When the Type VI doripenem anhydride crystal of Example 3 according to the present invention and the conventional Type IV doripenem were analyzed through differential scanning calorimetry (DSC), the decomposition temperature of the Type VI doripenem anhydride crystal was higher than that of the Type IV doripenem (FIG. 6).
In addition, the decomposition temperature of the Type VII doripenem anhydride crystal of Example 7 according to the present invention was higher than that of the Type IV doripenem hydrate (FIG. 11).

[6] = Measurement of water content
Procedure: The doripenem anhydride crystals of Examples 3 and 7 according to the present invention and the Type IV doripenem hydrate of Comparative Example 9 were measured for water content.

[7] = 2 weeks, listed as Comp. Example 9
[8] = 3 weeks, listed as Comp. Example 9

- solubility ([1]; at 22° C.): 20 mg/mL (≈ 47.6 mM)
- Purity (%) ([2]; 1 week, listed as Comp. Example 9): 99.0%
- Purity (%) [2, 7]: 98.2%
- Purity (%) [2, 8]: 97.3%
- decrease of purity over time ([2]; 3 weeks, listed as Type IV doripenem): 2.56%
- Purity (%) ([2]; Initial, listed as Comp. Example 9): 99.8%
- Max. Amount of impurities (%) ([3]; 1 week): 0.08%
- Max. Amount of impurities (%) [3, 7]: 0.23%
- increase of maximum amount of impurities over time ([3]; 3 weeks): 0.22%
- Max. Amount of impurities (%) [3, 8]: 0.28%
- Max. Amount of impurities (%) ([3]; Initial): 0.06%
- loss in TGA [4]: about 4.8%
SMILES: C[C@@H](O)[C@H]1C(=O)N2C(C(=O)O)=C(S[C@@H]3CN[C@H](CNS(N)(=O)=O)C3)[C@H](C)[C@H]12 [Comparative Example 9, doripenem]

- solubility ([1]; 22 °C, thermodynamic from solid, at 20 to 25° C., read-out: solubility): 55 to 65 mg/mL (≈ 131 to 155 mM)
- Purity (%) ([2]; 1 week): 99.4%
- Purity (%) ([2]; 2 weeks): 98.8%
- Purity (%) ([2]; 3 weeks): 98.7%
- decrease of purity over time ([2]; 3 weeks): less than 1%
- Purity (%) ([2]; Initial): 99.6%
- stability at high temperature (DSC decomposition temperature) compared to Type IV doripenem hydrate [5]: superior stability at high temperature
- Water content ([6]; listed as Type VI doripenem anhydride crystal): less than 2%
- loss in TGA [4]: about 0.46%
SMILES: C[C@@H](O)[C@H]1C(=O)N2C(C(=O)O)=C(S[C@@H]3CN[C@H](CNS(N)(=O)=O)C3)[C@H](C)[C@H]12 [Example 3, doripenem]

- solubility ([1]; 22 °C, thermodynamic from solid, measured in the same manner as for Example 3, read-out: solubility): 30 to 35 mg/mL (≈ 71.3 to 83.2 mM)
- Max. Amount of impurities (%) ([3]; 1 week): 0.08%
- Max. Amount of impurities (%) ([3]; 2 weeks): 0.08%
- Max. Amount of impurities (%) ([3]; 3 weeks): 0.08%
- increase of maximum amount of impurities over time ([3]; 3 weeks): 0.02%
- Max. Amount of impurities (%) ([3]; Initial): 0.06%
- stability at high temperature (DSC decomposition temperature) compared to Type IV doripenem hydrate [5]: superior stability at high temperature
- Water content ([6]; listed as Type VII doripenem anhydride crystal): less than 2%
SMILES: C[C@@H](O)[C@H]1C(=O)N2C(C(=O)O)=C(S[C@@H]3CN[C@H](CNS(N)(=O)=O)C3)[C@H](C)[C@H]12 [Example 7, doripenem]
